The source of these data is PubChem BioAssay (NCI).

Where “and” joins values, the source holds several entries; their conditions need not be identical. Identical values can stand only once.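 How tested: cells in 96-well plates exposed to compound for 48 hours at five concentrations. GI50 marks 50% less growth. TGI marks complete inhibition of growth.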 *1 amine or outer side, *2 acyl side, *3 side chain or, on linkers, in order; H or OH if unused. Where a SMILES comes first, the peptide text is derived from it. Bridges are numbered along the chain shown (N, C = ends). [ ]: non-standard residue; d: D form. ξ: configuration not given here. X4 = CCC(C)C(N[*:1])C(O)CC(=O)O[C@H](C(=O)C(C)C(=O)[*:2])C(C)C; NMeY = CN[C@@H](Cc1ccc(O)cc1)C(=O)O; X9 = O=C([C@@H]1CC(O)CN1[*:1])[*:2]; ξNMeL = CNC(CC(C)C)C(=O)O; ξT = CC(O)C(N)C(=O)O

Some test systems named below: A498 renal; HOP-62 NSCLC; M14 melanoma; NCI-H23 lung; NCI-H522 lung; OVCAR-8 ovarian; RPMI-8226 leukemia; SK-MEL-2 melanoma; U251 CNS; HT29 colon.
Common to all, as to assay: NCI-60 cell line screen, 48 h

As for `COc1cc2c(/C=C3/C(=O)Nc4ccccc43)c(Cl)n(Cc3ccccc3)c2cc1C`, the GI50 in the assay with A498 renal, in the assay with HOP-62 NSCLC, in the assay on M14 melanoma, in the assay on NCI-H23 lung, in the assay on NCI-H522 lung and in the assay on OVCAR-8 ovarian was more than 100 µM each time. For the same molecule, the figures for the GI50 in the assay with RPMI-8226 leukemia, in the assay on SK-MEL-2 melanoma and in the assay with U251 CNS were 21.1 µM, more than 100 µM and more than 100 µM, respectively. Further, the TGI with A498 renal, with HOP-62 NSCLC, with M14 melanoma, in the assay on NCI-H23 lung, in the assay with NCI-H522 lung and in the assay on OVCAR-8 ovarian was more than 100 µM throughout. Moreover, the TGI in the assay on RPMI-8226 leukemia, in the assay with SK-MEL-2 melanoma and with U251 CNS was more than 100 µM each time.

On to `COc1n[n+]([O-])c(C)cc1[N+](=O)[O-]`, for which the GI50 with A498 renal is 20.2 µM; in the assay with HOP-62 NSCLC it was 16.6 µM; in the assay on M14 melanoma it was 4.97 µM; in the assay on NCI-H23 lung it was 14.8 µM; in the assay on NCI-H522 lung, 8.26 µM; in the assay with OVCAR-8 ovarian, 13.4 µM. The GI50 in the assay on RPMI-8226 leukemia was 2.73 µM; in the assay on SK-MEL-2 melanoma, 11.2 µM; with U251 CNS, 16.8 µM. Also, the TGI with A498 renal came to 46.3 µM; in the assay with HOP-62 NSCLC, 31.5 µM; with M14 melanoma it was 18.3 µM; in the assay with NCI-H23 lung, 30.3 µM; in the assay on NCI-H522 lung, 22.7 µM; in the assay with OVCAR-8 ovarian it was 39.5 µM. Also, the TGI is 19.1 µM in the assay on RPMI-8226 leukemia, 24.5 µM in the assay with SK-MEL-2 melanoma and 34.5 µM with U251 CNS.

In the case of `Cn1c2ccccc2c2c(=O)n(CCCC(=O)NCC(=O)OC(=NC3CCCCC3)NC3CCCCC3)c3c(-c4ccccc4)nnn3c21`, the GI50 in the assay on A498 renal was 30.6 µM; with HOP-62 NSCLC, 15.3 µM; with M14 melanoma, 31.2 µM; in the assay with NCI-H23 lung, 15.6 µM; in the assay on NCI-H522 lung it was 15.9 µM; in the assay on OVCAR-8 ovarian, 7.37 µM. Besides, the figures for the GI50 in the assay on RPMI-8226 leukemia, in the assay on SK-MEL-2 melanoma and in the assay with U251 CNS were 4.26 µM, 33.1 µM and 12.4 µM, respectively. Moreover, the TGI in the assay with A498 renal was more than 100 µM; in the assay with HOP-62 NSCLC, 36.6 µM; with M14 melanoma it was more than 100 µM; with NCI-H23 lung, 33 µM; in the assay on NCI-H522 lung, 80.4 µM; in the assay on OVCAR-8 ovarian, more than 100 µM. Also, the TGI was 21.2 µM in the assay on RPMI-8226 leukemia, more than 100 µM with SK-MEL-2 melanoma and 38.3 µM in the assay with U251 CNS.

For `CC1(C)OC2C(CO)OC(n3ccc(=O)[nH]c3=O)C2O1` (configuration not stated), the TGI in the assay on A498 renal, in the assay on HOP-62 NSCLC, with M14 melanoma, in the assay on NCI-H23 lung, with NCI-H522 lung and with OVCAR-8 ovarian was more than 100 µM in each case. For the same molecule, the TGI with RPMI-8226 leukemia, in the assay with SK-MEL-2 melanoma and in the assay with U251 CNS was more than 100 µM throughout.

Regarding `O=c1c2cc(Br)ccc2oc2ccc(Br)cc12`, the TGI in the assay with A498 renal, with HT29 colon, in the assay on M14 melanoma, with NCI-H23 lung, in the assay on NCI-H522 lung and in the assay on OVCAR-8 ovarian was more than 100 µM in each case. Further, the TGI in the assay on RPMI-8226 leukemia, with SK-MEL-2 melanoma and with U251 CNS was more than 100 µM in each case.

`CCC(C)C1NC(=O)C(NC(=O)C(CC(C)C)N(C)C(=O)[C@@H]2CC(O)CN2)C(C)OC(=O)[C@H](Cc2ccc(OC)cc2)N(C)C(=O)[C@@H]2CCCN2C(=O)[C@H](CC(C)C)NC(=O)C(C)C(=O)[C@H](C(C)C)OC(=O)CC1O` (some centres not stated) (H-[X9][ξNMeL][ξT][X4]LP[NMeY](Me); ester 3-C): the GI50 in the assay on A498 renal is 0.283 µM; in the assay on OVCAR-8 ovarian, 0.0238 µM; in the assay on RPMI-8226 leukemia it was 0.0103 µM. Further, the TGI is 0.628 µM and 2.45 µM with A498 renal; 0.154 µM in the assay on HOP-62 NSCLC; 1.18 µM and 0.159 µM with HT29 colon; 0.11 µM and 0.126 µM in the assay with M14 melanoma; 0.0519 µM and 0.0638 µM with NCI-H522 lung; 0.759 µM and 1.06 µM with OVCAR-8 ovarian. Moreover, the TGI in the assay on SK-MEL-2 melanoma is 0.0496 µM and 0.0758 µM; in the assay with U251 CNS, 0.335 µM and 1.01 µM.

As for `CCOC(=O)c1cc2c(cc1Cl)SC(N(c1ccc(F)cc1)S(=O)(=O)c1ccc(OC)cc1)=NS2(=O)=O`, the GI50 in the assay on A498 renal is 23 µM; with HOP-62 NSCLC it was 35.1 µM; with HT29 colon, 16.1 µM; in the assay on M14 melanoma, 19.5 µM; in the assay with NCI-H23 lung, 18.5 µM; in the assay on NCI-H522 lung, 13.5 µM. Also, the results for the GI50 in the assay on RPMI-8226 leukemia, in the assay with SK-MEL-2 melanoma and in the assay with U251 CNS were 15 µM, 12.4 µM and 16.2 µM, respectively. For the same molecule, the TGI in the assay on A498 renal is 45.9 µM; with HOP-62 NSCLC it was more than 100 µM; with HT29 colon, 34.6 µM; in the assay on M14 melanoma, 49.1 µM; with NCI-H23 lung, 44 µM; in the assay with NCI-H522 lung, 29.9 µM. Also, the results for the TGI with RPMI-8226 leukemia, with SK-MEL-2 melanoma and in the assay with U251 CNS were 51.5 µM, 35.1 µM and 34.7 µM, respectively.

Consider `C#Cc1cccc(NC(=O)Nc2ccc(NC(=O)CCl)cc2)c1`, for which the GI50 was more than 82.5 µM in the assay on A498 renal; 19 µM in the assay with HOP-62 NSCLC; 14.8 µM with HT29 colon; 15.4 µM in the assay on NCI-H23 lung; 12.2 µM in the assay with NCI-H522 lung; 22.5 µM in the assay with OVCAR-8 ovarian. Besides, the values for the GI50 in the assay on RPMI-8226 leukemia, with SK-MEL-2 melanoma and with U251 CNS were 10.8 µM, more than 82.5 µM and 15.1 µM, respectively. Moreover, the TGI with A498 renal is more than 82.5 µM; in the assay with HOP-62 NSCLC it was more than 82.5 µM; in the assay with HT29 colon, 36.3 µM; with NCI-H23 lung, 36 µM; in the assay with NCI-H522 lung, 29.3 µM; in the assay on OVCAR-8 ovarian it was more than 82.5 µM. For the same molecule, the values for the TGI in the assay on RPMI-8226 leukemia, with SK-MEL-2 melanoma and in the assay with U251 CNS were 28.5 µM, more than 82.5 µM and 35.2 µM, respectively.

In the case of `CCOC(=O)c1sc(=S)c2c(C(=O)c3ccccc3)c(C(=O)c3ccccc3)sc2c1C(=O)OCC`, the GI50 with A498 renal is 7.96 µM; in the assay on HOP-62 NSCLC, 9.16 µM; in the assay on HT29 colon, 6.9 µM; in the assay on M14 melanoma, 5.56 µM; with NCI-H522 lung it was 2.66 µM; in the assay with OVCAR-8 ovarian, 3.44 µM. Moreover, the GI50 with RPMI-8226 leukemia is 2.87 µM; in the assay with SK-MEL-2 melanoma it was 3.51 µM; in the assay with U251 CNS, 3.49 µM. Also, the TGI was 52.2 µM in the assay with A498 renal; more than 100 µM in the assay on HOP-62 NSCLC; more than 100 µM in the assay with HT29 colon; more than 100 µM with M14 melanoma; 6.89 µM in the assay with NCI-H522 lung; more than 100 µM in the assay on OVCAR-8 ovarian. Further, the TGI is 9.19 µM with RPMI-8226 leukemia, 48.4 µM in the assay with SK-MEL-2 melanoma and more than 100 µM with U251 CNS.
